These are literature values, as cited in patent US20220218740A1, “OPIOID-FREE COMPOSITIONS FOR ANESTHESIOLOGICAL APPLICATIONS AND RELATED METHODS AND SYSTEMS” (Vaporworks Nursing Anesthesia Inc., priority 2020, published 2022).

For series [1] the following is noted: infusion continued post-surgically.
Experiment in series [2]: not given
This is another data set of the same source.

Molecules are shown by their SMILES. Where two headings read alike, the source gives them in different places. Some results are limits rather than exact numbers.

Take `CCN(CC)CC(=O)Nc1c(C)cccc1C` [Lidocaine]: the “Peak serum levels occur after medication administration” value in series [1] is “serum levels occur 24 hours”.
As to `C[C@@H]1C[C@H]2[C@@H]3CCC4=CC(=O)C=C[C@]4(C)[C@@]3(F)[C@@H](O)C[C@]2(C)[C@@]1(O)C(=O)COP(=O)(O)O` [Dexamethasone, Dexamethasone Sodium phosphate], under “in vivo”, the onset time entry is reported as “two” and the “time until peak effect” value is “at least 1 hour”.
Take `CC(CCc1ccccc1)NCC(O)c1ccc(O)c(C(N)=O)c1` (stereo not shown) [labetalol]: in series [2] (in vivo), the Duration entry is “up to 4 hours”, the Onset is 2 to 5 min and the Peak was 5 to 15 min.
As for `COC(=O)CCc1ccc(OCC(O)CNC(C)C)cc1` (stereo not shown) [esmolol], in series [2] (in vivo), the Duration was above 20 min and the Peak was 2 to 6 min. Also, in series [2] (in words), the Onset entry is on record as “Immediate”.
Take `Cc1cccc([C@H](C)c2cnc[nH]2)c1C` [Dexmedetomidine]: the peek effect (IV) is 15 min.
